Entries after “also recorded” stand apart in the source; their conditions may differ.
Assays:
FKBPL [1] = assay: FKBPL protein expression in BeWo trophoblast cell line; assay type: cell-based; conditions: BeWo cells, 10 μM, serum-containing medium
Description: (§1) Trophoblast (HTR8.SV.neo, BeWo) and endothelial cells (HUVEC) were exposed to: • i. diabetic stimuli, in the form of highly oxidised and glycated low density lipoproteins (HOG-LDL, 25 μg/ml)/4HNE (10 μM) or high glucose (10, 20, 30, 40 mM); or • ii. hypoxia (1%) or DMOG (10 μM), before FKBPL/SIRT1 protein and RNA levels were measured.

FKBPL [2] = assay: FKBPL mRNA levels in HTR8.SV.neo cells; assay type: cell-based; conditions: 10 μM, 24 h, serum-containing medium
Description: as §1

FKBPL [3] = assay: FKBPL protein level in HUVEC under hypoxia or normoxia (Western blotting); assay type: cell-based, human; conditions: 24 h, metformin 10 μM
Description: HUVEC cells were seeded and then exposed to hypoxia (1%) or normoxia (21%) for 24 h in the presence of metformin or vehicle control (VC). Protein lysates were prepared and FKBPL protein level measured using Western blotting.

SMILES | FKBPL protein expression (FKBPL [1]) | FKBPL protein expression (FKBPL [1]; listed as 4HNE) | FKBPL mRNA levels (FKBPL [2]) | FKBPL mRNA levels (FKBPL [2]; listed as 4HNE) | FKBPL expression normalised to vehicle control (FKBPL [3]; hypoxia (1%)) | FKBPL expression normalised to vehicle control (FKBPL [3]; normoxia (21%))
CCCCCC(O)/C=C/C=O (centres unmarked) [4-HNE] | downregulation of FKBPL protein expression | reduction in FKBPL protein levels | No change | No change in FKBPL mRNA levels |  | 
COC(=O)CNC(=O)C(=O)OC [DMOG] | reduction; also recorded: downregulation of FKBPL protein expression |  | reduction in FKBPL mRNA levels; also recorded: downregulation in FKBPL mRNA levels |  |  | 
CN(C)C(=N)N=C(N)N [metformin] |  |  |  |  | increasing the protein expression of FKBPL; also recorded: upregulates FKBPL | No change in FKBPL levels; also recorded: does not affect levels of FKBPL
